Literature values in patent publication US20110044993A1, “METHOD FOR THE PREVENTION AND TREATMENT OF CANCER BY INHIBITION OF GPVI” (priority 2008, published 2011).

Target: T1, GPVI (Homo sapiens, UniProt Q9HCN6)
T1 sequence (Q9HCN6 21-339): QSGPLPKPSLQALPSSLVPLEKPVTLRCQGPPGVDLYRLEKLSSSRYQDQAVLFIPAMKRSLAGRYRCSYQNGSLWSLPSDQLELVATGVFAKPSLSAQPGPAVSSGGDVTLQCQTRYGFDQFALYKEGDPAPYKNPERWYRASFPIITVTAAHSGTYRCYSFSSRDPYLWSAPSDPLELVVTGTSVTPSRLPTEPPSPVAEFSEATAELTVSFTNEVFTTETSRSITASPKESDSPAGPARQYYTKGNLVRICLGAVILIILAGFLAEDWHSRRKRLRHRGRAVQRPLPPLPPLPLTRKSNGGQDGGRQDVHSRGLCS
T1 sequence (P30273 19-86 partner): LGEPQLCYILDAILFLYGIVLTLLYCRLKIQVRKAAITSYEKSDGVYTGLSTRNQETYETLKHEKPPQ
Details: cited from earlier work

CCCCc1nc(Cl)c(C=O)n1Cc1ccc(-c2ccccc2-c2nn[nH]n2)cc1 [EXP3179]
Inhibition of GPVI: inhibits GPVI
